From paper PMC8284453 (Antimicrobial Agents and Chemotherapy, 2021)
Converted amounts (≈) assume the structure as drawn. Like-named read-outs stand apart in the source and are kept apart here.

Columns and labels:
[1] = system: strains of Enterobacterales expressing serine β-lactamases; experiment: organism not typed; type: cell-based
[2] = system: Enterobacterales expressing class A carbapenemases (KPC); experiment: organism not typed; type: cell-based, K. pneumoniae, E. coli, E. cloacae, Klebsiella oxytoca
[3] = system: Enterobacterales expressing class D oxacillinases (OXA-48/48-like); experiment: organism not typed; type: cell-based, E. coli, K. pneumoniae
[4] = system: isogenic strains of E. coli expressing Ambler class A, B, C, and D enzymes; experiment: microbe, parasite or virus in culture; type: cell-based, Escherichia coli; details: Escherichia coli, read-out: Vector control MIC
[5] = system: Enterobacterales expressing class C cephalosporinases
[6] = 25 isolates, BLI fixed at 4 μg/ml, AMC 2:1

`C=CC1=C(C(=O)O)N2C(=O)[C@@H](NC(=O)/C(=N\OCC(=O)O)c3csc(N)n3)[C@H]2SC1` [Cefixime, cefixime] showed an MIC50 [1] of 0.5 µg/mL (≈ 1.1 µM) and an MIC90 [1] of 2 µg/mL (≈ 4.41 µM).

With `CO/N=C(\C(=O)N[C@@H]1C(=O)N2C(C(=O)O)=C(/C=C\c3scnc3C)CS[C@H]12)c1csc(N)n1` [Cefditoren, cefditoren] the MIC50 [1] was 0.5 µg/mL (≈ 0.987 µM) and the MIC90 [1] was 2 µg/mL (≈ 3.95 µM).

`CC1(C)S[C@@H]2[C@H](NC(=O)[C@H](N)c3ccc(O)cc3)C(=O)N2[C@H]1C(=O)O` [AMX, amoxicillin] gave an MIC ([2]; E. cloacae 847429 (KPC)) of no less than 64 µg/mL, an MIC ([2]; E. cloacae OIMGH49 (p99 AmpC, ACT-2, KPC-2, TEM-1)) of no less than 64 µg/mL and an MIC ([2]; E. coli 786978 (KPC)) of no less than 64 µg/mL. It also gave an MIC ([2]; K. pneumoniae 845661 (KPC)) of no less than 64 µg/mL, an MIC ([2]; K. pneumoniae 845662 (KPC)) of no less than 64 µg/mL and an MIC ([2]; K. pneumoniae 845665 (KPC)) of no less than 64 µg/mL. For the same compound, the MIC ([2]; K. pneumoniae 845667 (KPC)) was no less than 64 µg/mL, the MIC ([2]; K. pneumoniae 845670 (KPC)) was no less than 64 µg/mL and the MIC ([2]; K. pneumoniae 845904 (KPC)) was no less than 64 µg/mL. For the same compound, the MIC ([2]; K. pneumoniae 847204 (KPC)) was no less than 64 µg/mL, the MIC ([2]; K. pneumoniae 847375 (KPC)) was no less than 64 µg/mL and the MIC ([2]; K. pneumoniae 847387 (KPC)) was no less than 64 µg/mL. For the same compound, the MIC50 [3, 6] was no less than 256 µg/mL, the MIC90 [3, 6] was no less than 256 µg/mL and the MIC range [3, 6] was no less than 256 µg/mL. The MIC ([3]; E. coli 664507 (OXA-48)) was no less than 256 µg/mL, the MIC ([3]; E. coli 664516 (OXA-48)) was no less than 256 µg/mL and the MIC ([3]; E. coli 664520 (OXA-48)) was no less than 256 µg/mL. The MIC ([3]; E. coli 664522 (OXA-48)) was no less than 256 µg/mL, the MIC ([3]; E. coli 664523 (OXA-48)) was no less than 256 µg/mL and the MIC ([3]; E. coli 664524 (OXA-48)) was no less than 256 µg/mL. For the same compound, the MIC ([3]; E. coli 664525 (OXA-48)) was no less than 256 µg/mL, the MIC ([3]; E. coli 664526 (OXA-48)) was no less than 256 µg/mL and the MIC ([3]; E. coli 664528 (OXA-48)) was no less than 256 µg/mL. The MIC ([3]; E. coli 787112 (OXA-48)) was no less than 256 µg/mL, the MIC ([3]; E. coli SI-422 (OXA-48)) was no less than 256 µg/mL and the MIC ([3]; E. coli VER (OXA-48)) was no less than 256 µg/mL. It also gave an MIC ([3]; K. pneumoniae 6299 (OXA-163)) of no less than 256 µg/mL, an MIC ([3]; K. pneumoniae 515746 (OXA-48), first line) of no less than 256 µg/mL and an MIC ([3]; K. pneumoniae 515746 (OXA-48), second line) of no less than 256 µg/mL. For the same compound, the MIC ([3]; K. pneumoniae 664438 (OXA-48)) was no less than 256 µg/mL, the MIC ([3]; K. pneumoniae 664439 (OXA-48)) was no less than 256 µg/mL and the MIC ([3]; K. pneumoniae 664509 (OXA-48)) was no less than 256 µg/mL. For the same compound, the MIC ([3]; K. pneumoniae 664518 (OXA-48)) was no less than 256 µg/mL, the MIC ([3]; K. pneumoniae 722870 (OXA-48)) was no less than 256 µg/mL and the MIC ([3]; K. pneumoniae BAH (OXA-204)) was no less than 256 µg/mL. The MIC ([3]; K. pneumoniae DEL (OXA-232)) was no less than 256 µg/mL, the MIC ([3]; K. pneumoniae DOV (OXA-48)) was no less than 256 µg/mL and the MIC ([3]; K. pneumoniae KIRK (OXA-162)) was no less than 256 µg/mL. It also gave an MIC ([3]; K. pneumoniae SI-C17 (OXA-48)) of no less than 256 µg/mL, an MIC [4] of 8 µg/mL (≈ 21.9 µM) and an MIC50 [5, 6] of no less than 256 µg/mL. It also gave an MIC90 [5, 6] of no less than 256 µg/mL, an MIC ([5]; C. freundii 134390 (AmpC, TEM-1)) of no less than 256 µg/mL and an MIC ([5]; E. aerogenes 110099 (AmpC, SHV-12)) of no less than 256 µg/mL. The MIC ([5]; E. aerogenes 111707 (AmpC, TEM-1)) was no less than 256 µg/mL, the MIC ([5]; E. aerogenes 111902 (AmpC, TEM-1)) was no less than 256 µg/mL and the MIC ([5]; E. coli 128 (AmpC, SHV-12, TEM-1, Toho-2)) was 128 µg/mL (≈ 350 µM). For the same compound, the MIC ([5]; E. coli 3102 (AmpC, CTX-M-15, TEM-1)) was 32 µg/mL (≈ 87.6 µM), the MIC ([5]; E. coli CH1 (AmpC, CTX-M-15, SHV-1, SHV-5, TEM-1)) was no less than 256 µg/mL and the MIC ([5]; E. coli EC469 (AmpC, SHV-12, TEM-1)) was 128 µg/mL (≈ 350 µM). For the same compound, the MIC ([5]; E. coli J53 (AmpC, SHV-5, TEM-1)) was 128 µg/mL (≈ 350 µM), the MIC ([5]; E. coli SI-P026TC (CMY-2, TEM-1)) was no less than 256 µg/mL and the MIC ([5]; E. coli SI-PO26 (AmpC, CMY-2, TEM-1)) was no less than 256 µg/mL. The MIC ([5]; K. pneumoniae 129032 (MOX-2, SHV-12, TEM-1)) was no less than 256 µg/mL, the MIC ([5]; K. pneumoniae 178279 (AmpC, SHV-12, TEM-1)) was no less than 256 µg/mL and the MIC ([5]; K. pneumoniae 212027 (AmpC, FOX-5, TEM-1)) was no less than 256 µg/mL. It also gave an MIC ([5]; K. pneumoniae 217917 (CMY-2, TEM-1)) of no less than 256 µg/mL, an MIC ([5]; K. pneumoniae 301313 (AmpC, SHV-12, TEM-1)) of no less than 256 µg/mL and an MIC ([5]; K. pneumoniae 398845 (CMY-2, SHV-12, TEM-1)) of no less than 256 µg/mL. It also gave an MIC ([5]; K. pneumoniae SI-F100 (CMY-2, SHV-5, TEM-1)) of no less than 256 µg/mL, an MIC ([5]; P. mirabilis SI-F014 (AmpC, TEM-72)) of no less than 256 µg/mL and an MIC ([5]; S. marcescens 132253 (AmpC, CTX-M-3, OXA-1, SHV-12, TEM-1)) of no less than 256 µg/mL. The MIC ([5]; S. marcescens 134434 (AmpC, SHV-12, TEM-1)) was no less than 256 µg/mL, the MIC ([5]; S. marcescens 142397 (AmpC, SHV-7, TEM-1)) was no less than 256 µg/mL and the MIC ([5]; S. marcescens 156212 (AmpC, SHV-12, TEM-1)) was no less than 256 µg/mL. The MIC ([5]; S. marcescens 192478 (AmpC, SHV-12, TEM-1)) was no less than 256 µg/mL and the MIC ([5]; S. marcescens 218068 (AmpC, SHV-7, TEM-1)) was no less than 256 µg/mL.
